Data as given in publication PMC7932080, “In vitro study of Hesperetin and Hesperidin as inhibitors of zika and chikungunya virus proteases” (PLoS ONE, 2021).

Tests used:
[1] = molecular target: ZIKV NS2B/NS3^pro (Zika virus, UniProt A0A024B7W1); assay: Thermal unfolding by fluorescence spectroscopy; conditions: 10 µM protease, 75 µM ligand
[2] = molecular target: CHIKV nsP2^pro (Chikungunya virus, UniProt Q8JUX6); assay: Thermal unfolding by fluorescence spectroscopy; conditions: 10 µM protease, 75 µM ligand
Sequence of CHIKV nsP2^pro (Q8JUX6 1001-1333): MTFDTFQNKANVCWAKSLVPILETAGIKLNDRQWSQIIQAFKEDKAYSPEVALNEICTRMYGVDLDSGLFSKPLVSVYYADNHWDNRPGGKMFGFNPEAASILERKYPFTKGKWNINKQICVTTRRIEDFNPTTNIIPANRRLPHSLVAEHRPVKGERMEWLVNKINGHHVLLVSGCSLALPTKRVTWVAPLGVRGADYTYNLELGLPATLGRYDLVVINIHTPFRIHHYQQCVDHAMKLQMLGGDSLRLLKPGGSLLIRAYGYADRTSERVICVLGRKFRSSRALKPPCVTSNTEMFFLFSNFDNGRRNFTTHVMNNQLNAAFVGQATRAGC

Sequence of ZIKV NS2B/NS3^pro (A0A024B7W1 1425-1464): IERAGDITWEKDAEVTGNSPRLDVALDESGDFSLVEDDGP
Sequence of ZIKV NS2B/NS3^pro (A0A024B7W1 1503-1680): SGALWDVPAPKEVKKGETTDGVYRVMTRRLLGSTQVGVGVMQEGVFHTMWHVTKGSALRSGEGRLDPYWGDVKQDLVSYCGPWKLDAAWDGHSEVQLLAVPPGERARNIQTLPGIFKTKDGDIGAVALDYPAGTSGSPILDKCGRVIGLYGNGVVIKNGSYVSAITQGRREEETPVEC

SMILES: COc1ccc(C2CC(=O)c3c(O)cc(O)cc3O2)cc1O (stereo not shown) [HST, 3’,5,7-trihydroxy-4’-methoxyflavanone]
- Melting temperature (Tm) of protease-ligand complex [1]: 49 °C
- ΔTm [1]: 6 °C
- Melting temperature (Tm) of protease-ligand complex [2]: 55 °C
- ΔTm [2]: ~8 °C
